From US11084976B2, “Method and process of use of binary compositions for acidizing subterranean formations” (Halliburton Energy Services, Inc., priority 2018, dated 2021)
Values after ≈ are worked out from the molar mass of the structure shown.

Tests used:
[1] = Solubility of PMIDA in water and HCl (saturation concentrations); format: physicochemical; conditions: for solubility thermodynamic: water, thermodynamic from solid, H2O
Description: In certain embodiments, the organic compound comprising a phosphonoalkyl moiety is at least partially solubilized in the organic or mineral acid. As used herein, the term “at least partially solubilized,” and grammatical variants thereof, with reference to the organic compound comprising a phosphonoalkyl moiety in the organic or mineral acid refers to dissolution of at least about 2% weight per volume (w/v) of the organic compound comprising a phosphonoalkyl moiety in the organic or mineral acid at room temperature. As used herein, the term “room temperature” refers to about 15° C. to about 25° C. The remaining excess organic compound comprising a phosphonoalkyl moiety may be suspended in the organic or mineral acid while it is undergoing dynamic fluid flow at room temperature. As temperatures increase (e.g., as the treatment fluid is introduced into a subterranean formation and encounters downhole temperatures), the solubility of the organic compound comprising a phosphonoalkyl moiety in the organic or mineral acid may increase. Indeed, the solubility of the organic compound comprising a phosphonoalkyl moiety increases as a function of acid concentration, and temperature.

[2] = PMIDA added to base solubility test; format: physicochemical; conditions: base added to PMIDA in solid form or high concentrated slurry
Protocol: During the testing, however, it was observed that adding the base to the PMIDA in its solid form, or in a high concentrated slurry, was unsuccessful.
The following procedure was followed to generate several samples. First, a quantity of a known base in water was prepared. Next, PMIDA was added to the solution at a rate slow enough to ensure that no boiling of the fluid occurred. As discussed above, it is believed that the addition of the PMIDA to the base may result in an exothermic reaction that may aid in additional solubilizing of PMIDA due to the increase in the fluid temperature. After complete addition and thorough mixing, the fluid was cooled, and the volume, weight, and pH were measured. Finally, the concentration and density of the samples were determined.

O=C(O)CN(CC(=O)O)CP(=O)(O)O [PMIDA, N-(phosphonomethyl)iminodiacetic acid]
Solubility Average ([1]; Atm., 7.5% HCl, 200° F.): 10.00 w/v %
solubility thermodynamic ([1]; 37.8 °C, 200 psi, 100° F.): 18.3 mg/mL (≈ 80.6 mM)
solubility thermodynamic ([1]; 37.8 °C, Atm., 100° F.): 22.6 mg/mL (≈ 99.5 mM)
solubility thermodynamic ([1]; 65.6 °C, 200 psi, 150° F.): 28.7 mg/mL (≈ 126 mM)
solubility thermodynamic ([1]; 65.6 °C, Atm., 150° F.): 31.9 mg/mL (≈ 140 mM)
solubility thermodynamic ([1]; 93.3 °C, 200 psi, 200° F.): 51.1 mg/mL (≈ 225 mM)
solubility thermodynamic ([1]; 93.3 °C, Atm., 200° F.): 47.9 mg/mL (≈ 211 mM)
Solubility in the base mixture [2]: substantially insoluble
